These results are taken from patent publication US20250304576A1 (Cancer Research Technology Limited, priority 2022, published 2025).

One assay concerns the target T1, Recombinant IKKβ (Homo sapiens, UniProt O14920).
T1 construct: purchased Millipore, Dundee, UK
T1 sequence (O14920 1-756): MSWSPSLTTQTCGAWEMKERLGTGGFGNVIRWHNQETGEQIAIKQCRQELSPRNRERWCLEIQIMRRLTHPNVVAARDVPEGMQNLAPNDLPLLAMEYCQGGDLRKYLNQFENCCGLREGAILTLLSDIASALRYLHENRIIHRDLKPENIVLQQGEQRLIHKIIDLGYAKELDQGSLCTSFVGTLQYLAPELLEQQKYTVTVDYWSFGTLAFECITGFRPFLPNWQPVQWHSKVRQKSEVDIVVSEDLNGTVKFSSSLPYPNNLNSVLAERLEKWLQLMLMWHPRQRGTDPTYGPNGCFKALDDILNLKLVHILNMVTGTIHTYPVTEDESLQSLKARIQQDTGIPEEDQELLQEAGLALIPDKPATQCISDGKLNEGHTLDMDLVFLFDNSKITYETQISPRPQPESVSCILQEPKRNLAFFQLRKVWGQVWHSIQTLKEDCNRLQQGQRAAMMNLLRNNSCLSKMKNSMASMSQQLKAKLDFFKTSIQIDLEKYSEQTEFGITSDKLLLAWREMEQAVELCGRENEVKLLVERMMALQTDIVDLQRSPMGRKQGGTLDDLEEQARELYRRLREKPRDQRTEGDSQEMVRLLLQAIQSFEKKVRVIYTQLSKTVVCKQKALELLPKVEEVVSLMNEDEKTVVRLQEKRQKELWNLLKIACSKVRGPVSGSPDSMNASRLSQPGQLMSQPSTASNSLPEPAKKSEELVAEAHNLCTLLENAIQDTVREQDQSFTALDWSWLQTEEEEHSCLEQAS
Nature of the assay: DELFIA IKKβ kinase assay (apparent Ki, Cheng-Prusoff). It counts as biochemical. The note with it: non-italicised figure: DELFIA assay. In short, it runs like this: (§1)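 Recombinant IKKα or IKKβ (37 nM) with 0.375 μM biotinylated IκB-α (Ser32) peptide and 40 μM ATP in 40 mM Tris-HCl pH 7.5, 20 mM MgCl2, 60 min at 30° C. Phospho-substrate captured on streptavidin and detected by anti-phospho-IκB-α plus europium anti-mouse IgG time-resolved fluorescence; apparent Ki via Cheng-Prusoff.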

A further assay has as its target T2, Recombinant IKKα (Homo sapiens, UniProt O15111).
T2 construct: purchased Millipore, Dundee, UK
T2 sequence (O15111 1-745): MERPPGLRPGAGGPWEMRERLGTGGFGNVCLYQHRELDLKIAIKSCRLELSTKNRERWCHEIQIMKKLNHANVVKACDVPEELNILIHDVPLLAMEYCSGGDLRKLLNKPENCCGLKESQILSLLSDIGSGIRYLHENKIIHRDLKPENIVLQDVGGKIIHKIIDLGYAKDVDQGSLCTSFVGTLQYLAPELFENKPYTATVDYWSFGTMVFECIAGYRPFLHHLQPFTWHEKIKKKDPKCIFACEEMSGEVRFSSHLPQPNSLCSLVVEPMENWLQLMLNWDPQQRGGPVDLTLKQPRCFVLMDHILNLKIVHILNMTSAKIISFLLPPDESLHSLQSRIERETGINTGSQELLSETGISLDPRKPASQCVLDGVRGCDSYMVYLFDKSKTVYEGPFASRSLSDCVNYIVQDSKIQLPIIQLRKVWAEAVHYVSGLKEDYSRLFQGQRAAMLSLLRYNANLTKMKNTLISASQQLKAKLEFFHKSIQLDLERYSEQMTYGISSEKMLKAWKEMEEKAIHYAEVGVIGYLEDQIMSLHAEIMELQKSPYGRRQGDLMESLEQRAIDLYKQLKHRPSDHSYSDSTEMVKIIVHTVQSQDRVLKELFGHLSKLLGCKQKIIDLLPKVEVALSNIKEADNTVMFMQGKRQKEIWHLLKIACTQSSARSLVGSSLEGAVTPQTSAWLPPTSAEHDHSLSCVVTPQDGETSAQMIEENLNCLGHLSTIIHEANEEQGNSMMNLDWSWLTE
Description: DELFIA IKKα kinase assay (apparent Ki, Cheng-Prusoff). Format: biochemical. The note with it: non-italicised figure: DELFIA assay. A digest of the protocol: as §1

`Nc1n[nH]c2ccc(-c3ccnc(NC(=O)Nc4ccc(Cl)cc4)c3)cc12` [Example 63]: the Ki on Recombinant IKKβ is 1720 nM; at Recombinant IKKα, 48 nM.

For `CC(C)(C)c1ccc(NC(=O)Nc2cc(-c3ccc4[nH]nc(N)c4c3)ccn2)cc1` [Example 64, 1-(4-(3-Amino-1H-indazol-5-yl)pyridin-2-yl)-3-(4-(tert-butyl)phenyl)urea], the Ki at Recombinant IKKβ came out at 2900 nM; at Recombinant IKKα, 76 nM.

With `CS(=O)(=O)c1ccc(NC(=O)Nc2cc(-c3ccc4[nH]nc(N)c4c3)ccn2)cc1` [Example 65, 1-(4-(3-Amino-1H-indazol-5-yl)pyridin-2-yl)-3-(4-(methylsulfonyl)phenyl)urea], the Ki at Recombinant IKKβ came to 419 nM; at Recombinant IKKα, 27 nM.

For `Cc1ccccc1NC(=O)Nc1cc(-c2ccc3[nH]nc(N)c3c2)ccn1` [Example 66, 1-(4-(3-Amino-1H-indazol-5-yl)pyridin-2-yl)-3-(o-tolyl)urea], the Ki amounted to 1050 nM at Recombinant IKKβ and 46 nM on Recombinant IKKα.

As for `CCc1ccccc1NC(=O)Nc1cc(-c2ccc3[nH]nc(N)c3c2)ccn1` [Example 67, 1-(4-(3-Amino-1H-indazol-5-yl)pyridin-2-yl)-3-(2-ethylphenyl)urea], the values for the Ki at Recombinant IKKβ and at Recombinant IKKα were 4200 nM and 300 nM, respectively.

Consider `CC(C)c1ccccc1NC(=O)Nc1cc(-c2ccc3[nH]nc(N)c3c2)ccn1` [Example 68, 1-(4-(3-Amino-1H-indazol-5-yl)pyridin-2-yl)-3-(2-isopropylphenyl)urea], for which the Ki on Recombinant IKKβ turned out to be 1900 nM; at Recombinant IKKα it was 100 nM.

Consider `Nc1n[nH]c2ccc(-c3ccnc(NC(=O)Nc4cccnc4)c3)cc12` [Example 69, 1-(4-(3-Amino-1H-indazol-5-yl)pyridin-2-yl)-3-(pyridin-3-yl)urea], for which the values for the Ki on Recombinant IKKβ and on Recombinant IKKα were 1190 nM and 42 nM, respectively.

In the case of `Nc1ccc(C#Cc2c(-c3ccc4[nH]nc(N)c4c3)ccnc2N)cc1` [Example 76, 5-(2-Amino-3-((4-aminophenyl)ethynyl)pyridine-4-yl)-1H-indazol-3-amine], the Ki at Recombinant IKKβ is 32 nM; on Recombinant IKKα, 8 nM.

For `Nc1cccc(C#Cc2c(-c3ccc4[nH]nc(N)c4c3)ccnc2N)c1` [Example 77, 5-(2-Amino-3-((3-aminophenyl)ethynyl)pyridine-4-yl)-1H-indazol-3-amine], the values for the Ki on Recombinant IKKβ and on Recombinant IKKα were 22 nM and 4 nM, respectively.

Consider `Nc1ccccc1C#Cc1c(-c2ccc3[nH]nc(N)c3c2)ccnc1N` [Example 78, 5-(2-Amino-3-((2-aminophenyl)ethynyl)pyridine-4-yl)-1H-indazol-3-amine], for which the Ki on Recombinant IKKβ stood at 59 nM; at Recombinant IKKα, 17 nM.

Take `COC(=O)c1cccc(C#Cc2c(-c3ccc4[nH]nc(N)c4c3)ccnc2N)c1` [Example 79, Methyl 3-((2-amino-4-(3-amino-1H-indazol-5-yl)149yridine-3-yl)ethynyl)benzoate]: the results for the Ki on Recombinant IKKβ and on Recombinant IKKα were 128 nM and 17 nM, respectively.

For the compound `COC(=O)c1ccc(C#Cc2c(-c3ccc4[nH]nc(N)c4c3)ccnc2N)cc1` [Example 80, Methyl 4-((2-amino-4-(3-amino-1H-indazol-5-yl)150yridine-3-yl)ethynyl)benzoate], the Ki on Recombinant IKKβ stood at 15 nM; on Recombinant IKKα, 2 nM.

With `COc1ccccc1C#Cc1c(-c2ccc3[nH]nc(N)c3c2)ccnc1N` [Example 81, 5-(2-Amino-3-((2-methoxyphenyl)ethynyl)pyridine-4-yl)-1H-indazol-3-amine], the Ki at Recombinant IKKβ was 484 nM; on Recombinant IKKα, 15 nM.

As to `Nc1nccc(-c2ccc3[nH]nc(N)c3c2)c1C#CCCC(=O)c1ccccc1` [Example 82, 5-(2-Amino-4-(3-amino-1H-indazol-5-yl)pyridine-3-yl)-1-phenylpent-4-yn-1-one], the Ki on Recombinant IKKβ is 537 nM; at Recombinant IKKα it was 19 nM.

Consider `CC(C)(O)CCC#Cc1c(-c2ccc3[nH]nc(N)c3c2)ccnc1N` [Example 86, 6-(2-Amino-4-(3-amino-1H-indazol-5-yl)pyridine-3-yl)-2-methylhex-5-yn-2-ol], for which the Ki was determined as 390 nM on Recombinant IKKβ and 28 nM on Recombinant IKKα.

With `Nc1nccc(-c2ccc3[nH]nc(N)c3c2)c1C#CCCN1CCOCC1` [Example 94, 5-(2-Amino-3-(4-morpholinobut-1-yn-1-yl)pyridin-4-yl)-1H-indazol-3-amine], the results for the Ki on Recombinant IKKβ and at Recombinant IKKα were 922 nM and 38 nM, respectively.

As to `Nc1nccc(-c2ccc3[nH]nc(N)c3c2)c1C#CCC1CCNCC1` [Example 97, 5-(2-Amino-3-(3-(piperidin-4-yl)prop-1-yn-1-yl)pyridin-4-yl)-1H-indazol-3-amine], the Ki on Recombinant IKKβ is 105 nM; at Recombinant IKKα, 15 nM.

`CNC(=O)C#Cc1c(-c2ccc3[nH]nc(N)c3c2)ccnc1N` [Example 98, 3-(2-Amino-4-(3-amino-1H-indazol-5-yl)pyridin-3-yl)-N-methylpropiolamide]: the Ki on Recombinant IKKβ and at Recombinant IKKα was greater than 10000 nM each time.

Take `Nc1nccc(-c2ccc3[nH]nc(N)c3c2)c1C1CC1` [Example 100, 5-(2-Amino-3-cyclopropylpyridin-4-yl)-1H-indazol-3-amine]: the Ki on Recombinant IKKβ is greater than 10000 nM; on Recombinant IKKα it was 1790 nM.

Turning to `Nc1cc(-c2cc(-c3cccc(F)c3)c3[nH]nc(N)c3c2)ccn1` [Example 105, 5-(2-Aminopyridin-4-yl)-7-(3-fluorophenyl)-1H-indazol-3-amine], the results for the Ki on Recombinant IKKβ and at Recombinant IKKα were 500 nM and 40 nM, respectively.

Take `Nc1cc(-c2cc(-c3cccc(C(F)(F)F)c3)c3[nH]nc(N)c3c2)ccn1` [Example 106, 5-(2-Aminopyridin-4-yl)-7-(3-(trifluoromethyl)phenyl)-1H-indazol-3-amine]: the Ki worked out at 1010 nM at Recombinant IKKβ and 162 nM at Recombinant IKKα.

On to `Nc1cccc(-c2cc(-c3ccnc(N)c3)cc3c(N)n[nH]c23)c1` [Example 107, 7-(3-Aminophenyl)-5-(2-aminopyridin-4-yl)-1H-indazol-3-amine], for which the values for the Ki at Recombinant IKKβ and at Recombinant IKKα were 545 nM and 14 nM, respectively.

On to `Nc1cc(-c2cc(-c3cccc(O)c3)c3[nH]nc(N)c3c2)ccn1` [Example 108, 3-(3-Amino-5-(2-aminopyridin-4-yl)-1H-indazol-7-yl)phenol], for which the Ki turned out to be 680 nM at Recombinant IKKβ and 10 nM at Recombinant IKKα.

As to `COc1cccc(-c2cc(-c3ccnc(N)c3)cc3c(N)n[nH]c23)c1` [Example 109, 5-(2-Aminopyridin-4-yl)-7-(3-methoxyphenyl)-1H-indazol-3-amine], the Ki at Recombinant IKKβ is 587 nM; at Recombinant IKKα it was 55 nM.

On to `Nc1cc(-c2cc(-c3cccc(CO)c3)c3[nH]nc(N)c3c2)ccn1` [Example 110], for which the Ki on Recombinant IKKβ stood at 290 nM; at Recombinant IKKα it was 29 nM.

Consider `Nc1cc(-c2cc(-c3cccc(C=O)c3)c3[nH]nc(N)c3c2)ccn1` [Example 111, 3-(3-Amino-5-(2-aminopyridin-4-yl)-1H-indazol-7-yl)benzaldehyde], for which the Ki stood at 100 nM at Recombinant IKKβ and 12 nM at Recombinant IKKα.

Regarding `CCOC(=O)c1cccc(-c2cc(-c3ccnc(N)c3)cc3c(N)n[nH]c23)c1` [Example 112, Ethyl 3-(3-amino-5-(2-aminopyridin-4-yl)-1H-indazol-7-yl)benzoate], the Ki on Recombinant IKKβ was 1470 nM; on Recombinant IKKα, 152 nM.

With `NC(=O)c1cccc(-c2cc(-c3ccnc(N)c3)cc3c(N)n[nH]c23)c1` [Example 113, 3-(3-Amino-5-(2-aminopyridin-4-yl)-1H-indazol-7-yl)benzamide], the Ki on Recombinant IKKβ amounted to 840 nM; at Recombinant IKKα, 43 nM.

Consider `Nc1cc(-c2cc(-c3cccc(S(N)(=O)=O)c3)c3[nH]nc(N)c3c2)ccn1` [Example 114, 3-(3-Amino-5-(2-aminopyridin-4-yl)-1H-indazol-7-yl)benzenesulfonamide], for which the Ki at Recombinant IKKβ was determined as 461 nM; at Recombinant IKKα it was 7 nM.
